Laboratory results taken from paper PMC5034043 (The Journal of Biological Chemistry, 2016).
Where two headings read alike, the source gives them in different places.

System: T1, synaptosomal proteome
T1 construct: from tissue; host or cells: brain synaptosomes of male C57/B6 mice
Format: binding, mouse
Description: Synaptosomes were resuspended to 1 mg of protein/ml in HEPES buffer medium (in mM: 140 NaCl, 5 KCl, 5 NaHCO3, 1.2 NaH2PO4, 1 MgCl2, 10 glucose, and 10 HEPES (pH 7.4)). […] The samples were allowed to equilibrate for 5 min before being transferred to a parafilm-sealed 1-mm path length quartz cuvette. The sample was then irradiated for 20 min at a peak bandwidth of 350 nm (Rayonet RPR-3500 lamp) ∼6 cm from the light source. Non-irradiated samples were left in the dark at ambient temperature (22–25 °C) for 20 min. All remaining procedures were conducted with restricted light exposure.
To 750 μg of photolabeled or control synaptosome samples, 40 μl of 10% SDS and 2 μl of 5 mM DTT in water were added. Samples were then vortexed, heated for 10 min at 65 °C, and then briefly cooled. Final concentrations of 150 μM azide-biotin (Click Chemistry Tools), 2 mM tris(3-hydroxypropyltriazolylmethyl)amine (Sigma), 1 mM ascorbic acid (Sigma), and 1 mM CuSO4·5H2O (Sigma) were added to each sample and vortexed vigorously. The samples were left in the dark at ambient temperature (22–25 °C) for 1 h with mild agitation. Directly to each sample 4× volume chilled methanol, 1.5× chilled chloroform, and 3× chilled double distilled H2O were added. Samples were vortexed vigorously and centrifuged at 1,400 × g for 30 min at 4 °C. Both liquid layers were carefully removed, and the protein pellet was washed with 2 ml of 1:1 (v/v) chilled methanol/chloroform. Samples were centrifuged at 3,500 × g for 30 min at 4 °C. Protein pellets were briefly air-dried before further processing.
750 μg of biotin-conjugated protein sample was resuspended in 500 μl of 25 mM NH4HCO3 and 6 M urea in water. Next, 150 μl of 5% Triton X-100 in water, 50 μl of 10% SDS in water, and 1.5 μl of 0.5 M DTT were added. The samples were heated for 15 min at 65 °C. After briefly cooling, 14 μl of 0.5 M iodoacetamide in water was added, and the sample was left in the dark for 45 min. […] The supernatant was diluted to 4 ml with PBS, and 2 ml of PBS containing 100 μl of 50% streptavidin-agarose resin (Thermo Scientific) was added. Biotinylated proteins within the sample were captured over resin overnight at 4 °C with mild agitation. The resin was first washed with 6 ml of 1% SDS in PBS, and then 7 ml of 0.1 M urea in PBS followed by 10 ml of PBS. The resin underwent a final wash with 0.9 ml of 50 mM Tris-HCl and 1 mM CaCl2 in water (pH 8.0) and then resuspended in 200 μl of 50 mM Tris-HCl, 1 mM CaCl2 in water (pH 8.0), and 2 μg of porcine sequencing grade trypsin (Promega). Samples were digested overnight at 37 °C. Samples were then centrifuged at 2,000 × g for 4 min, and digest supernatant was decanted. Beads were washed in 100 μl of PBS centrifuged at 5,200 × g for 5 min, and the wash was combined with the digest supernatant. To the combined sample, trifluoroacetic acid (TFA) was added to 0.4% (v/v) or until pH <2. The sample was desalted with Oasis C18 10-mg columns (Waters) as described previously ([66]). The eluted sample was dried by speed vac and resuspended in 0.1 M HEPES buffer (pH 8.5). […] Appropriate corresponding TMTsixplex^TM-labeled samples were pooled and dried by speed vac. The combined samples were resuspended in 0.5% acetic acid in water and pH-corrected with acetic acid until pH was <2. 40 μg of protein was desalted with C18 stage tips prepared in-house and dried by speed vac.
Samples were resuspended in 10 mM KH2PO4 (pH 2.6), 30% acetonitrile (v/v) in water, and fractionated by off-line strong cation exchange chromatography prior to mass spectrometry (MS) analysis similar to as reported previously ([66]). The full synaptosome proteome control was prepared similarly without TMTsixplex^TM labeling.
All TMT samples were analyzed with three-stage mass spectrometry (MS3) TMTsixplex^TM quantification workflow as described previously ([34]).

[1] = protein P26049 Gamma-aminobutyric acid receptor subunit alpha-3 (Gabra3)
[2] = protein P27671 Ras-specific guanine nucleotide-releasing factor 1 (Rasgrf1)
[3] = protein P35762 CD81 antigen (Cd81)
[4] = protein P50571 Gamma-aminobutyric acid receptor subunit beta-1 (Gabrb1)
[5] = protein P56480 ATP synthase subunit beta, mitochondrial (Atp5b)
[6] = protein P56564 Excitatory amino acid transporter 1 (Slc1a3)
[7] = protein P60879 Synaptosomal-associated protein 25 (Snap25)
[8] = protein P61264 Syntaxin-1B (Stx1b)
[9] = protein P62204 Calmodulin (Calm1)
[10] = protein P63328 Serine/threonine-protein phosphatase 2B catalytic subunit alpha isoform (Ppp3ca)
[11] = protein Q2TPA8 Hydroxysteroid dehydrogenase-like protein 2 (Hsdl2)
[12] = protein Q3TXX4 Vesicular glutamate transporter 1 (Slc17a7)
[13] = protein Q3UN02 Lysocardiolipin acyltransferase 1 (Lclat1)
[14] = protein Q4W8U9 Scg2 protein (Scg2)
[15] = protein Q5IRJ6 Zinc transporter 9 (Slc30a9)
[16] = protein Q5U458 DnaJ homolog subfamily C member 11 (Dnajc11)
[17] = protein Q7TME0 Lipid phosphate phosphatase-related protein type 4 (Lppr4)
[18] = protein Q7TQ95 Protein lunapark (Lnp)
[19] = protein Q8BFT9 Synaptic vesicle 2-related protein (Svop)
[20] = protein Q8BG51 Mitochondrial Rho GTPase 1 (Rhot1)

SMILES: C#CCOCc1ccc(C2(C(F)(F)F)N=N2)cc1O [AziPm-click (1), 2-((prop-2-yn-1-yloxy)methyl)-5-(3-(trifluoromethyl)-3H-diazirin-3-yl)phenol]
- TMT Ratio Mean 'UV/ No UV' (protein O35963 Ras-related protein Rab-33B (Rab33b)): 16.23
- Log2( Mean 'UV/ No UV') (protein P23819-4 Isoform 4 of Glutamate receptor 2 (Gria2)): 3.65
- Log2( Mean 'UV/ No UV') [1]: 4.09
- TMT Ratio Mean 'UV/ No UV' [1]: 17.05
- Log2( Mean 'UV/ No UV') [2]: 4.14
- TMT Ratio Mean 'UV/ No UV' [2]: 17.58
- Log2( Mean 'UV/ No UV') (protein P35564 Calnexin (Canx)): 4.47
- TMT Ratio Mean 'UV/ No UV' (protein P35564 Calnexin (Canx)): 22.10
- Log2( Mean 'UV/ No UV') [3]: 4.34
- TMT Ratio Mean 'UV/ No UV' [3]: 20.23
- Log2( Mean 'UV/ No UV') [4]: 4.63
- TMT Ratio Mean 'UV/ No UV' [4]: 24.73
- Log2( Mean 'UV/ No UV') [5]: 3.54
- TMT Ratio Mean 'UV/ No UV' [5]: 11.59
- Log2( Mean 'UV/ No UV') [6]: 4.59
- TMT Ratio Mean 'UV/ No UV' [6]: 24.11
- Log2( Mean 'UV/ No UV') [7]: 4.57
- TMT Ratio Mean 'UV/ No UV' [7]: 23.77
- Log2( Mean 'UV/ No UV') [8]: 4.37
- TMT Ratio Mean 'UV/ No UV' [8]: 20.71
- Log2( Mean 'UV/ No UV') [9]: 4.63
- TMT Ratio Mean 'UV/ No UV' [9]: 24.78
- Log2( Mean 'UV/ No UV') [10]: 3.65
- TMT Ratio Mean 'UV/ No UV' [10]: 12.55
- Log2( Mean 'UV/ No UV') (protein P70429-2 Isoform 1 of Ena/VASP-like protein (Evl)): 4.31
- Log2( Mean 'UV/ No UV') (protein P97300-3 Isoform 3 of Neuroplastin (Nptn)): 3.67
- Log2( Mean 'UV/ No UV') [11]: 3.68
- TMT Ratio Mean 'UV/ No UV' [11]: 12.83
- Log2( Mean 'UV/ No UV') [12]: 4.04
- TMT Ratio Mean 'UV/ No UV' [12]: 16.48
- Log2( Mean 'UV/ No UV') [13]: 4.50
- TMT Ratio Mean 'UV/ No UV' [13]: 22.69
- Log2( Mean 'UV/ No UV') [14]: 4.03
- TMT Ratio Mean 'UV/ No UV' [14]: 16.35
- Log2( Mean 'UV/ No UV') [15]: 4.34
- TMT Ratio Mean 'UV/ No UV' [15]: 20.22
- Log2( Mean 'UV/ No UV') [16]: 3.93
- TMT Ratio Mean 'UV/ No UV' [16]: 15.27
- Log2( Mean 'UV/ No UV') [17]: 3.46
- TMT Ratio Mean 'UV/ No UV' [17]: 10.98
- Log2( Mean 'UV/ No UV') [18]: 3.56
- TMT Ratio Mean 'UV/ No UV' [18]: 11.82
- Log2( Mean 'UV/ No UV') [19]: 3.80
- TMT Ratio Mean 'UV/ No UV' [19]: 13.90
- Log2( Mean 'UV/ No UV') [20]: 3.48
- TMT Ratio Mean 'UV/ No UV' [20]: 11.17
- Log2( Mean 'UV/ No UV') (protein Q8BH24 Transmembrane 9 superfamily member 4 (Tm9sf4)): 4.09
